{"source": "paper PMC7821884", "about": "“BRAF inhibition protects against hearing loss in mice” (Science Advances, 2020)", "key": {"HEI-OC1 cell line": {"tested_on": "HEI-OC1 cell line", "experiment": "Caspase-Glo 3/7 activity screen for protection from cisplatin-induced cell death", "type": "cell-based, mouse", "conditions": "Mus musculus; HEI-OC1, 50 μM cisplatin, 22 hours", "procedure": "An unbiased screen for compounds protective against cisplatin ototoxicity ([12], [13]) was conducted using the immortalized inner ear cell line HEI-OC1 derived from mouse cochlea ([14]). One hundred sixty-two unique small-molecule kinase-specific inhibitors were screened in dose-response mode for protection from 50 μM cisplatin. A caspase-3/7 activity assay was selected to measure apoptosis using a protocol that quantifies a luminescent product derived from the cleavage of caspase-3/7 substrate (Caspase-Glo 3/7 reagent). One hundred percent luminescence was defined by cells treated with cisplatin alone, and 0% was defined by untreated cells (Fig. 1A, fig. S1, table S1, and dataset in the Supplementary Materials).\nIn these screens, caspase-3 cleavage was chosen as the end point indicating cisplatin-induced apoptosis, because it allowed the inhibition of cell death to be monitored at the level of any molecular target upstream of caspase-3 cleavage in the HEI-OC1 cell line. Cells were plated at a previously optimized concentration of 1600 cells per well in medium without γ-interferon to limit proliferation and tested against 50 μM cisplatin based on a previous dose–response curve. Tested compounds were dissolved in DMSO before addition to medium with a final DMSO concentration of <0.5%. The screens are described in detail in our previous publications ([12], [13]). […]"}, "IMR-32": {"tested_on": "IMR-32", "experiment": "Tumor Cell Titer-Glo viability assay, IMR-32", "type": "cell-based, human", "conditions": "IMR-32, 35 μM + 15 μM cisplatin, 48 hours", "source_text": "(§1) In clinical settings, cisplatin is used to treat several tumor types, including neuroblastoma and lung carcinoma. […] Medium-alone–, cisplatin-alone–, and dabrafenib-alone–treated cells were used as controls, and viability was reported as percent survival compared to medium alone (Fig. 4E).\n(§2) Three human neuroblastoma cell lines IMR-32, SH-SY5Y, and, SK-N-AS, as well as three human lung carcinoma cell lines SHP-77 small cell, H1155 non–small cell, and A549 non–small cell, were used to determine the compounds’ effect on cisplatin’s tumor-killing efficacy ([77]–[83]). Cell lines were purchased from the American Type Culture Collection (ATCC), and cell culture was conducted according to ATCC specifications. Neuroblastoma cell lines IMR-32 and SH-SY5Y are maintained in Dulbecco’s modified Eagle’s medium (DMEM) 1× with glucose (4.5 g/liter), L-glutamine, and sodium pyruvate (10-013-CV, Corning) with 10% fetal bovine serum (FBS) (35011132, Corning) and ampicillin (50 μg/ml; A5354-10ML, Sigma-Aldrich) added. The SK-N-AS cell line is maintained in DMEM 1× with D-glucose (4.5 g/liter), L-glutamine, and 25 mM Hepes (12430-054, Gibco) with 10% FBS, 0.1 mM nonessential amino acids, and ampicillin (50 μg/ml) added. A549 cells are maintained in F-12K medium with L-glutamine (30-2004, ATCC) with 10% FBS and ampicillin (50 μg/ml) added. […]"}, "SHP-77 small cell": {"tested_on": "SHP-77 small cell", "experiment": "Tumor Cell Titer-Glo viability assay, SHP-77", "type": "cell-based, human", "source_text": "as §1, §2"}, "[1]": {"tested_on": "human neuroblastoma and lung carcinoma cell lines", "experiment": "Tumor Cell Titer-Glo viability assay, interference with cisplatin tumor killing (six cell lines)", "type": "cell-based", "conditions": "compound at 3× protective IC50 (dabrafenib 35 μM, AZD5438 […]) + 15 μM cisplatin (200 μM for A549), 48 hours", "source_text": "as §1, §2"}}, "data": [{"compound": "CC(C)(C)c1nc(-c2cccc(NS(=O)(=O)c3c(F)cccc3F)c2F)c(-c2ccnc(N)n2)s1", "note": "[dabrafenib]", "values": [{"measurement": "IC50", "setting": "HEI-OC1 cell line", "result": 13.5, "unit": "µM"}, {"measurement": "effect on tumor cell death when combined with cisplatin", "setting": "IMR-32", "result": "increased tumor cell death"}, {"measurement": "effect on tumor cell death when combined with cisplatin", "setting": "SHP-77 small cell; SHP-77, 35 μM + 15 μM cisplatin, 48 hours", "result": "increased tumor cell death"}, {"measurement": "cell survival, drug treatment alone", "setting": "SHP-77 small cell; SHP-77, 35 μM, no cisplatin", "result": "significant inhibition"}, {"measurement": "effect on cisplatin-induced tumor cell death", "setting": "[1]", "result": "no inhibitory effect"}]}]}
